Assay results as given in US20220388979A1, “QUINOLINE DERIVATIVES AS PROTEIN KINASE INHIBITORS” (B.C.I. PHARMA, priority 2019, published 2022).

How the values were obtained:
Conditions in all cases: at 50 nM, in duplicate
[1] = target: T1, FLT3 (Homo sapiens, UniProt P36888); assay: Z'-Lyte biochemical kinase assay (SelectScreen), FLT3
T1 sequence (P36888 27-993): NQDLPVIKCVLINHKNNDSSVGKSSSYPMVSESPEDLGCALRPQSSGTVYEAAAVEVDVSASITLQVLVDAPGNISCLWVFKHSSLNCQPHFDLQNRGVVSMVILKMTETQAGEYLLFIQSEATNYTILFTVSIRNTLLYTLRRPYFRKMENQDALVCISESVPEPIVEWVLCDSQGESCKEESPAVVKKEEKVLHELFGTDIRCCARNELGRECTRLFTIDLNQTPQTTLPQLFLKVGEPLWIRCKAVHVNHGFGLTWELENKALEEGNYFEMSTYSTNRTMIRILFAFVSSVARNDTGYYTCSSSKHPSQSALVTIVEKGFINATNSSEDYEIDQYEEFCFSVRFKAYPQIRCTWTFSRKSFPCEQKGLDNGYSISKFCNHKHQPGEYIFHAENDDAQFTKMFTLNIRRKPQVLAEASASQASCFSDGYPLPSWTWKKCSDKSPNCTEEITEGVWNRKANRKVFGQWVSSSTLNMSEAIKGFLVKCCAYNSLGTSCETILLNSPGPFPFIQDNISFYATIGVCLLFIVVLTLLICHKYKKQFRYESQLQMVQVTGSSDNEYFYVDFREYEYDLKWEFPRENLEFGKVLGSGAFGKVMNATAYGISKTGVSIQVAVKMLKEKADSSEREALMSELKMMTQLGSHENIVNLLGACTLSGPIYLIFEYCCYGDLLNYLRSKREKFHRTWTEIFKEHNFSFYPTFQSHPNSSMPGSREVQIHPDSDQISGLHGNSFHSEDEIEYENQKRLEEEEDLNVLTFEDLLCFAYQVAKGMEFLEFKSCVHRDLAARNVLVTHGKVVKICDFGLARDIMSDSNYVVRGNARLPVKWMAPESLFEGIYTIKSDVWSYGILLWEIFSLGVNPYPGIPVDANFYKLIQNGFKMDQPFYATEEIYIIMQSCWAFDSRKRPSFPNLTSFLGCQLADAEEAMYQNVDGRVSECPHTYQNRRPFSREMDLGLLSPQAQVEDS
Experimental: (§1) A biochemical assay was performed in order to measure the protein kinase inhibition. The kinase binding assays were performed against different kinases using the SelectScreen Biochemical Kinase Profiling Service® platform (Thermo Fisher Scientific). For all kinases, the Z′-Lyte® biochemical kinase assay technology was used. Inhibitions were measured at 50 nM in duplicate for each compound and are reported in percentage.

[2] = target: PDGFRA (Homo sapiens, UniProt P16234); assay: Z'-Lyte biochemical kinase assay (SelectScreen), PDGFRA
Experimental: as §1

[3] = target: Kit (Homo sapiens, UniProt P10721); assay: Z'-Lyte biochemical kinase assay (SelectScreen), Kit
Experimental: as §1

[4] = target: CSF1R (Homo sapiens, UniProt P07333); assay: Z'-Lyte biochemical kinase assay (SelectScreen), CSF1R
Experimental: as §1

[5] = target: PDGFRB (Homo sapiens, UniProt P09619); assay: Z'-Lyte biochemical kinase assay (SelectScreen), PDGFRB
Experimental: as §1

PDGFRB, sequence (P09619 33-1106): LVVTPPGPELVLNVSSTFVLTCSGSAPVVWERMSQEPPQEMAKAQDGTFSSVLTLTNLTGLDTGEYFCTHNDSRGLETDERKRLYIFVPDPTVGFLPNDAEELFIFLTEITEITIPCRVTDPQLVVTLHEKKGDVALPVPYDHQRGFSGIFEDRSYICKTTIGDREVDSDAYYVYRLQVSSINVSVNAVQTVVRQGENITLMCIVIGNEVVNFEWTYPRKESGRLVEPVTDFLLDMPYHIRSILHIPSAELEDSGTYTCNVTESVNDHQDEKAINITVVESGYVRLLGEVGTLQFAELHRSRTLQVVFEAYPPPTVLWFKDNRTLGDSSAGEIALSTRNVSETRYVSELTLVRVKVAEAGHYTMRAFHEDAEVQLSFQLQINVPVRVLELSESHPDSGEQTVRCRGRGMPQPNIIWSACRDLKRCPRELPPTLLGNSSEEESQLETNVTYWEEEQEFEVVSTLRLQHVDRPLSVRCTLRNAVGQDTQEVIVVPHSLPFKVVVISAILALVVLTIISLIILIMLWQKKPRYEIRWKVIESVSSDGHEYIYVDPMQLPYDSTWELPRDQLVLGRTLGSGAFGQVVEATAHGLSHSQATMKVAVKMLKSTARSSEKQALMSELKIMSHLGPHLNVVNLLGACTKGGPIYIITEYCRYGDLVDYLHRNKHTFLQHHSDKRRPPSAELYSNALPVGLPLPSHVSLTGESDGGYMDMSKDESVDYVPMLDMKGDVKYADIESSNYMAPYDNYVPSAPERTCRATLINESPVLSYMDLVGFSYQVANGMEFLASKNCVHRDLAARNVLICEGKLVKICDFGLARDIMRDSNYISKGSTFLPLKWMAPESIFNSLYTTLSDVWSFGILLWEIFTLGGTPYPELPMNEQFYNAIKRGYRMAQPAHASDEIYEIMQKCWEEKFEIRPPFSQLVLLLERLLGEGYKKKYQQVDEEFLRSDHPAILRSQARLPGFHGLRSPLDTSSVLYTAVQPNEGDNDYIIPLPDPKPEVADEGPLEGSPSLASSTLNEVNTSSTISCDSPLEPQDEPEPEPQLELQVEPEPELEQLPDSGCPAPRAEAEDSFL
Kit, sequence (P10721 26-976): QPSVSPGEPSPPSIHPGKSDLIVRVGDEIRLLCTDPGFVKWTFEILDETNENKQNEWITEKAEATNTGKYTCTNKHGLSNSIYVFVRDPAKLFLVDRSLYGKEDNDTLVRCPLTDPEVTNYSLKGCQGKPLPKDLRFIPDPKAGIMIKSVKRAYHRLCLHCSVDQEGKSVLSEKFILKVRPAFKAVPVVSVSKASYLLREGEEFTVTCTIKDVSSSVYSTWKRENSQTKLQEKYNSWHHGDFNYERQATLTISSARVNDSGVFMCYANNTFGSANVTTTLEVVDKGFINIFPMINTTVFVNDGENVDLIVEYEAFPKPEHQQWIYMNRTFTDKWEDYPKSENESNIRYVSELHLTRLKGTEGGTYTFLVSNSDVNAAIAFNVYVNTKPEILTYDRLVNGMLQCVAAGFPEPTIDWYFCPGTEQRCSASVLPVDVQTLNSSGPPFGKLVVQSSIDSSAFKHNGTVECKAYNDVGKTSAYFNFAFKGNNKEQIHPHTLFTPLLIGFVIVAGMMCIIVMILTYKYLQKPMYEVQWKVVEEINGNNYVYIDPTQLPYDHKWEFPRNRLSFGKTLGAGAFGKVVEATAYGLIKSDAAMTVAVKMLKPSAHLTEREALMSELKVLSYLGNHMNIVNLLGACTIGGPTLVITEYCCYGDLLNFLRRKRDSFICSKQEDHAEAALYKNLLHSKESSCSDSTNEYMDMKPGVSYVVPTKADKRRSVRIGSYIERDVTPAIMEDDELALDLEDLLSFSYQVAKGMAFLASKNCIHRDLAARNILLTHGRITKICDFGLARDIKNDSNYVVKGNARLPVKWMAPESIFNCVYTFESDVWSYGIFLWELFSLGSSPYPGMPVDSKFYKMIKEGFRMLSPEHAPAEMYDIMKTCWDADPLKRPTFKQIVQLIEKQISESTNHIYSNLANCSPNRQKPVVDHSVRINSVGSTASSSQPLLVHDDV
CSF1R, sequence (P07333 20-972): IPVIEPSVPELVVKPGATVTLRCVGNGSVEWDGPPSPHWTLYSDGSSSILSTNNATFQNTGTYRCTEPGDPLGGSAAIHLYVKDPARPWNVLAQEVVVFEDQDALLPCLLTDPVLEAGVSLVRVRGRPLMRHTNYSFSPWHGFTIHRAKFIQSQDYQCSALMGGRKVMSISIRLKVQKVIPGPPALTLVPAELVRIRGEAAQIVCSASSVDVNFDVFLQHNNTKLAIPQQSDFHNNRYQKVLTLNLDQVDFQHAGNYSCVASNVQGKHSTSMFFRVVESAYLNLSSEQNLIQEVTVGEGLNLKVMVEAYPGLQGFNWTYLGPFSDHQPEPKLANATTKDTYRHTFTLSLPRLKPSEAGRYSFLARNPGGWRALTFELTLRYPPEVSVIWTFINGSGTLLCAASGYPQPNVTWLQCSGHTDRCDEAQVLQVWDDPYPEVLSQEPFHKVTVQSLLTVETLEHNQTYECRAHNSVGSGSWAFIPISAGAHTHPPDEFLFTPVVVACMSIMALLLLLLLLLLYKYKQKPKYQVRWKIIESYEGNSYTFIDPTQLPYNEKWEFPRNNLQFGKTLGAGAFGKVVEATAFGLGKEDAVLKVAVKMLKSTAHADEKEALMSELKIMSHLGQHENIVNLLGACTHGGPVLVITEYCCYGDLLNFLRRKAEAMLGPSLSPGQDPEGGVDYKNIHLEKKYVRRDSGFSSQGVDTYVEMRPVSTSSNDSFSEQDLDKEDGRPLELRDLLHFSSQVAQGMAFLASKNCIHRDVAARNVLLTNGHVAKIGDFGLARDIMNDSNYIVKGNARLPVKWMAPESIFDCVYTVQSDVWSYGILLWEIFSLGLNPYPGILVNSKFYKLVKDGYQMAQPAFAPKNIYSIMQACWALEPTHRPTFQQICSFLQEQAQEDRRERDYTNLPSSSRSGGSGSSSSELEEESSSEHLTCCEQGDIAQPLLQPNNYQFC
PDGFRA, sequence (P16234 24-1089): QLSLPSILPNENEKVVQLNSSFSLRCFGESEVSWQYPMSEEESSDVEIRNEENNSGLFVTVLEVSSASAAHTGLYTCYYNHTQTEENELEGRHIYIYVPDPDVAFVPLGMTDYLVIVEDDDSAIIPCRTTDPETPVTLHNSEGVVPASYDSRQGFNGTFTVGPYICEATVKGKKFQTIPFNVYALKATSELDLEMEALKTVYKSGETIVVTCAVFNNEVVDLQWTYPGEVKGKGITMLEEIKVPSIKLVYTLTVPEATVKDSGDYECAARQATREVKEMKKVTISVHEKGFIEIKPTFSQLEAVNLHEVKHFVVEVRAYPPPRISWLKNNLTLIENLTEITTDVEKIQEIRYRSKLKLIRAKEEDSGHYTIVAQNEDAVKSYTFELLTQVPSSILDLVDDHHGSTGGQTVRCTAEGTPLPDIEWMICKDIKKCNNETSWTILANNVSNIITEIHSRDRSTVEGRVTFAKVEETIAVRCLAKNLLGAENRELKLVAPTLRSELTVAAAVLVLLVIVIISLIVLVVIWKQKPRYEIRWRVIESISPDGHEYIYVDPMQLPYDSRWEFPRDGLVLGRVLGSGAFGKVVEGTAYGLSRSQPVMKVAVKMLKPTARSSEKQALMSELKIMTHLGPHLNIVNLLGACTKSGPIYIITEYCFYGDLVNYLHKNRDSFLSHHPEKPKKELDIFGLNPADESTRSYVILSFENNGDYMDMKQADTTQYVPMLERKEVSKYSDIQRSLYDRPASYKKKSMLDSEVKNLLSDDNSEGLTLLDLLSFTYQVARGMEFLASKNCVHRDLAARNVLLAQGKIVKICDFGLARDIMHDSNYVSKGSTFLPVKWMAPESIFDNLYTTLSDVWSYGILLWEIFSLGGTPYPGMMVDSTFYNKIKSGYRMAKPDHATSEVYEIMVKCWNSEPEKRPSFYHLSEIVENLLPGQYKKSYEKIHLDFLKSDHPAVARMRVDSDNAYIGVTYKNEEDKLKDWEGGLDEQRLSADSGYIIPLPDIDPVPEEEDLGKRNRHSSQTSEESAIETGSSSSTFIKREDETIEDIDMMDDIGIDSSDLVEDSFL

inhibition at 0.05 µM [1] | inhibition at 0.05 µM [2] | inhibition at 0.05 µM [3] | inhibition at 0.05 µM [4] | inhibition at 0.05 µM [5] | SMILES
8% | 2% | 2% | 96% | 6% | COc1ccc2c(Oc3cccc(C(=O)NCc4ccncc4)c3C)ccnc2c1 [Compounds 32]
6% | 11% | 10% | 88% | 13% | Cc1c(Oc2ccnc3cc(Cl)ccc23)cccc1C(=O)NCc1ccncc1 [Compounds 108]
6% | 18% | 7% | 71% | 27% | O=C(NCC1CCCCC1)c1cccc(Oc2ccnc3ccccc23)c1 [compound 3]
14% | 16% | 20% | 85% | 22% | COc1ccccc1CNC(=O)c1cccc(Oc2ccnc3ccccc23)c1 [compound 7]
18% | 17% | 11% | 71% | 24% | O=C(NCc1cccc(F)c1)c1cccc(Oc2ccnc3ccccc23)c1 [compound 10]
7% | 23% | 15% | 81% | 24% | O=C(NCc1ccc(F)cc1)c1cccc(Oc2ccnc3ccccc23)c1 [compound 16]
-4% | 15% | 14% | 83% | 12% | O=C(NCc1cncc(F)c1)c1cccc(Oc2ccnc3ccccc23)c1 [compound 17]
44% | 24% | 29% | 97% | 34% | COc1cc2nccc(Oc3cccc(C(=O)N[C@H](C)c4ccccc4)c3)c2cc1OC [compound 24]
48% | 27% | 32% | 95% | 39% | COc1cc2nccc(Oc3cccc(C(=O)NCCc4ccccc4)c3)c2cc1OC [compound 25]
47% | 35% | 32% | 102% | 50% | COc1ccccc1CNC(=O)c1cccc(Oc2ccnc3cc(OC)c(OC)cc23)c1 [compound 26]
39% | 23% | 26% | 93% | 44% | COc1cc2nccc(Oc3cccc(C(=O)NCC4CCCCC4)c3)c2cc1OC [compound 27]
2% | 21% | 17% | 93% | 28% | COc1cc2nccc(Oc3cccc(C(=O)NCc4cncc(F)c4)c3)c2cc1OC [compound 29]
10% | 8% | 8% | 72% | 11% | Cc1c(Oc2ccnc3ccccc23)cccc1C(=O)NCc1ccc(C#N)cc1 [compound 30]
16% | 10% | 4% | 78% | 14% | COc1ccc2c(Oc3cccc(C(=O)NCc4cccc(F)c4)c3C)ccnc2c1 [compound 33]
25% | 7% | 20% | 83% | 12% | O=C(NCc1cccnc1)c1cccc(Oc2ccnc3ccccc23)c1 [compound 74]
16% | -1% | 20% | 79% | 10% | O=C(NCc1ccncc1)c1cccc(Oc2ccnc3ccccc23)c1 [compound 75]
37% | 16% | 34% | 91% | 54% | COc1cc2nccc(Oc3cccc(C(=O)NCc4ccccc4)c3)c2cc1OC [compound 84]
26% | 22% | 31% | 85% | 28% | COc1ccc2c(Oc3cccc(C(=O)NCc4ccccc4)c3)ccnc2c1 [compound 85]
29% | 31% | 30% | 85% | 53% | COc1ccc2c(Oc3cc(F)cc(C(=O)NCc4ccccc4OC)c3)ccnc2c1 [compound 88]
36% | 49% | 21% | 86% | 48% | COc1ccccc1CNC(=O)c1cc(F)cc(Oc2ccnc3cc(OC)c(OC)cc23)c1 [compound 89]
26% | 28% | 9% | 77% | 28% | COc1cc2nccc(Oc3cc(F)cc(C(=O)N[C@H](C)C4CCCCC4)c3)c2cc1OC [compound 90]
50% | 24% | 13% | 94% | 60% | COc1ccccc1CNC(=O)c1ccc(F)c(Oc2ccnc3cc(OC)c(OC)cc23)c1 [compound 92]
3% | 23% | 2% | 82% | 24% | COc1cc2nccc(Oc3cc(C(=O)N[C@H](C)C4CCCCC4)ccc3F)c2cc1OC [compound 93]
27% | 30% | 32% | 93% | 45% | COc1cc2nccc(Oc3cc(C(=O)NCc4cccc(F)c4)ccc3F)c2cc1OC [compound 94]
6% | 6% | 5% | 79% | 23% | COc1ccc2c(Oc3cc(C(=O)NCc4ccncc4)ccc3F)ccnc2c1 [compound 98]
26% | 17% | 0% | 75% | 20% | COc1ccccc1CNC(=O)c1ccc(F)c(Oc2ccnc3ccccc23)c1 [compound 99]
37% | 25% | 27% | 81% | 40% | O=C(NCc1cccc(F)c1)c1ccc(F)c(Oc2ccnc3ccccc23)c1 [compound 101]
8% | -5% | 7% | 73% | 13% | Cc1c(Oc2ccnc3ccccc23)cccc1C(=O)NCc1cccc(F)c1 [compound 103]
19% | 22% | 11% | 85% | 25% | COc1cc2nccc(Oc3cccc(C(=O)NCc4cccc(F)c4)c3C)c2cc1OC [compound 107]
